This is an account of results in article PMC9858543, “Design, synthesis and evaluation of 2, 6, 8-substituted Imidazopyridine derivatives as potent PI3Kα inhibitors” (Journal of Enzyme Inhibition and Medicinal Chemistry, 2023).

In data set [1] the test system is SKOV-3. Description: Cell proliferation assay (CellTiter-Glo), SKOV-3. It is filed as cell-based. As to conditions: Homo sapiens, SK-OV-3; 72 h exposure; mean ± SD of two experiments. The method, then:
(§1) Given the desirable enzyme activity profile, these compounds were further assayed for their antiproliferative activities against five independent human tumour cell line collections harbouring PIK3CA mutation, including human ovarian cancer cell line SKOV-3, human breast cancer T47D and MCF-7, human lung cancer H1975 and H460. […] In general, the cellular activity of tested derivatives corrected with their effects on kinase activity.
(§2) All target compounds were evaluated for antiproliferative potency against SKOV-3, T47D,NCI-H1975, NCI-H460,and MCF-7 tumour cell lines using a CellTiter-Glo® Luminescent Cell Viability Assay. The human tumour cell lines used were obtained from the ATCC or Shanghai ZhongQiaoXinZhou Biotech. All the mediums and FBS were Gibco. T47D, H1975 and NCI-H460 tumour cells were cultured in RPMI1640 medium supplemented with 10% FBS. SKOV-3 was cultured in McCoy’s 5 A medium supplemented with 10%FBS. The day before treatment with compounds, cells were seeded at a density of 2000 or 5000 in each well of a 96-well plate. The tumour cells were then treated with 3-fold serial diluted compound or DMSO control in the incubator at 37 °C and 5% CO2 for 3 days, prior to the addition of CellTiter-Glo reagents (Promega) and reading of luminescence using a PerkinElmer Envision plate reader. Data were analysed using GraphPad Prism 7.0.
In general terms: Cellular ATP, detected with luciferase, serves as a proxy for viable cell number.

Data set [2] relates to T47D. The data set can be described thus: Cell proliferation assay (CellTiter-Glo), T47D. Format: cell-based. The following applies: Homo sapiens, 72 h exposure, mean ± SD of two experiments. The protocol:
as §1, §2

Data set [3] concerns MCF-7. Description: Cell proliferation assay (CellTiter-Glo), MCF-7. Format: cell-based. As to conditions: Homo sapiens, MCF7; 72 h exposure; mean ± SD of two experiments. The protocol:
as §1, §2

Data set [4] concerns T47D cells. Description: Cell cycle analysis, PI flow cytometry. It is filed as cell-based, human. The following applies: 24 h. The protocol: Considering compound 35 was most sensitive in T47D cells, we decided to get some mechanistic insight into the mode of action in T47D cell line. As such, the annexin V/7-AAD staining and cell cycle phase distribution have been carried out. […] Furthermore, T47D cells were also treated with different concentrations of 35, and the percentage of apoptotic cells was measured.
For cell cycle analysis, T47D cell (1 × 10^6) were seeded in 6-well plates overnight and treated with different concentrations of compound 35 and DMSO control on the next day. After 24 h, the cells were collected by EDTA-free trypsinization, centrifuged at 1500 rpm for 5 min, and fixed in 75% ethanol at −20 °C for 1 h. The cells were then centrifuged at 2000 rpm for 5 min, resuspended in 500 µL PI/Rnase Staining Buffer, incubated for 30 min at room temperature, and analysed using flow cytometry. The data were analysed using Modfit software. For cell apoptosis analysis, T47D cell were seeded in 6 well-plates and treated with DMSO or compound 35 for 24 h. The treated cells were collected and washed with cold PBS for three times, resuspended in 185 µL binding buffer containing 5 μL Annexin V-FITC Apoptosis Detection Kit and 10 μL 7-AAD Viability Staining Solution for 15 min at room temperature in the dark. Apoptotic cells were analysed by flow cytometer.
(A flow cytometer gives signals particle by particle.)

Data set [5] in a line: Liver microsomal stability assay, RLM. Format: in vitro ADME, rat. The method, then:
(§3) The metabolic stability of compound 35 was determined in human or SD rat liver microsomes, with and without the NADPH regenerating system. Briefly, compound 35 was incubated with microsomes (human microsome, CORNING, lot No. 38296; rat microsome, Xenotech, Lot No. 2110178) (0.5 mg protein/mL) at 1 μM at 37 °C in potassium phosphate buffer (100 mM at pH 7.4 with 10 mM MgCl2). The reactions were initiated by adding prewarmed cofactors (1 mmol NADPH). After incubation for different times (0, 5, 10, 20, 30, and 60 min) at 37 °C, cold acetonitrile containing 200 ng/mL tolbutamide and 200 ng/mL labetalol as internal standards was added to precipitate the protein. Then, the samples were centrifuged, and the supernatants were transferred into HPLC water, mixed by plate shaker for 10 min prior to LC − MS/MS analysis.
In general terms: Liver microsomes are a subcellular fraction often used to study metabolism.

Data set [6] can be described thus: Liver microsomal stability assay, HLM. Format: in vitro ADME, human. The method, then: as §3
For data set [7], the target named is T1, CYP1A2 (Homo sapiens, UniProt P05177).
T1 construct: tissue Lot No. 38292; host or cells: human liver microsomes
T1 sequence (P05177 1-516): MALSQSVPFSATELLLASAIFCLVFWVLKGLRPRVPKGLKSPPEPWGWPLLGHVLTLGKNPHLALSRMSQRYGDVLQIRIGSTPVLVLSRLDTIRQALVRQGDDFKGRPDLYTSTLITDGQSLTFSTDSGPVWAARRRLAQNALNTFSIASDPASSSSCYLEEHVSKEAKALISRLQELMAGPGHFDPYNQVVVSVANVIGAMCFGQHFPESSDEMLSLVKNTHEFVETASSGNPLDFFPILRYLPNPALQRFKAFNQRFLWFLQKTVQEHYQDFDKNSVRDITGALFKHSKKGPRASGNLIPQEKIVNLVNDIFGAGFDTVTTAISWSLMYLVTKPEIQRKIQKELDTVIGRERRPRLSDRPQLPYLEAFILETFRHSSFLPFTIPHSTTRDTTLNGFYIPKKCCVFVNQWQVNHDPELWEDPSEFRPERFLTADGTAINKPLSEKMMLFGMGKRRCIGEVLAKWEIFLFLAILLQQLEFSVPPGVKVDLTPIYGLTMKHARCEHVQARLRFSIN
Description: CYP450 inhibition assay in human liver microsomes. As to conditions: 10 μM. It is filed as in vitro ADME. The protocol:
(§4) Cytochrome P450 inhibition was evaluated in human liver microsomes (0.253 mg/mL, Lot No. 38292) using five specific probe substrates (CYP1A2, 10 μM phenacetin; CYP2D6, 5 μM dextromethorphan; and CYP3A4, 2 μM midazolam; 2C9, 5 μM Diclofenac; 2C19, 30 μM S-mephenytoin) and positive control in the presence of multiple concentrations of the test compound. After pre-warm at 37 °C for 10 min, the reaction was initiated by the addition of NADPH. The mixture was incubated at 37 °C for 10 min, terminated by the addition of cold stop solution (200 ng/mL tolbutamide and 200 ng/mL labetalol in acetonitrile). The samples were centrifuged, and the supernatants were analysed by LC − MS/MS.

In data set [8] the target is T2, CYP2C19 (Homo sapiens, UniProt P33261).
T2 construct: tissue Lot No. 38292; host or cells: human liver microsomes
Description: CYP450 inhibition assay in human liver microsomes. Format: in vitro ADME. The following applies: 10 μM. The protocol:
as §4

Data set [9] concerns the target T3, CYP2C9 (Homo sapiens, UniProt P11712).
T3 construct: tissue Lot No. 38292; host or cells: human liver microsomes
The data set can be described thus: CYP450 inhibition assay in human liver microsomes. The following applies: 10 μM. Format: in vitro ADME. The protocol:
as §4

Data set [10] has as its target T4, CYP2D6 (Homo sapiens, UniProt P10635).
T4 construct: tissue Lot No. 38292; host or cells: human liver microsomes
Description: CYP450 inhibition assay in human liver microsomes. It is filed as in vitro ADME. The following applies: 10 μM. The protocol: as §4

Data set [11] concerns the target T5, CYP3A4 (Homo sapiens, UniProt P08684).
T5 construct: tissue Lot No. 38292; host or cells: human liver microsomes
The data set can be described thus: CYP450 inhibition assay in human liver microsomes. The following applies: 10 μM. Format: in vitro ADME. The method, then: as §4

T5 sequence (P08684 whole entry): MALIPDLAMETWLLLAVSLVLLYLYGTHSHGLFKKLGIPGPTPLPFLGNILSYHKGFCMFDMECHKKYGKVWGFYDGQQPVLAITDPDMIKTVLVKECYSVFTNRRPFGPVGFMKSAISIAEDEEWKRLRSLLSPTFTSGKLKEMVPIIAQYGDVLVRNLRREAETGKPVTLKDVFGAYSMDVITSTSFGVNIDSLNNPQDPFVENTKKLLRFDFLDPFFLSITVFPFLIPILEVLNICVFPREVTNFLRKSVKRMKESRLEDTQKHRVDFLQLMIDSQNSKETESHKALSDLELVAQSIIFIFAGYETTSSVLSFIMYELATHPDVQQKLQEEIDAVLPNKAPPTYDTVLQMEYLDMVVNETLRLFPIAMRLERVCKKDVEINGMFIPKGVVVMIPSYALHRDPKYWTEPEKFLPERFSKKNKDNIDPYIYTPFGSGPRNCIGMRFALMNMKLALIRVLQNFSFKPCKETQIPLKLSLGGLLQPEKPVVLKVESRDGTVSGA
T4 sequence (P10635 whole entry): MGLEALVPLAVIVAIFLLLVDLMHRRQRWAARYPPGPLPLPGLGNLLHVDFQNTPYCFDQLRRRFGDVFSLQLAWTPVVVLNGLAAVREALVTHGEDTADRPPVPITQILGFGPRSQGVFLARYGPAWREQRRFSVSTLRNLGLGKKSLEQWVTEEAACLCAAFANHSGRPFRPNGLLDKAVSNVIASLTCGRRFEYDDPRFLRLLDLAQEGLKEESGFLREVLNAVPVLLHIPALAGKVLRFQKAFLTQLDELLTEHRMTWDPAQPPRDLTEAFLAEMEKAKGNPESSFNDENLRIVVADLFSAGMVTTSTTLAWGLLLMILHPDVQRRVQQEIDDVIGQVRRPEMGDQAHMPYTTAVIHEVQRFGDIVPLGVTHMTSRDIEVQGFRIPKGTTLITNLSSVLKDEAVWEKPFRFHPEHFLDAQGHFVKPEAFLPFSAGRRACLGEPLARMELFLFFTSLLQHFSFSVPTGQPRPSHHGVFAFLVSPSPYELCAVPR
T3 sequence (P11712 whole entry): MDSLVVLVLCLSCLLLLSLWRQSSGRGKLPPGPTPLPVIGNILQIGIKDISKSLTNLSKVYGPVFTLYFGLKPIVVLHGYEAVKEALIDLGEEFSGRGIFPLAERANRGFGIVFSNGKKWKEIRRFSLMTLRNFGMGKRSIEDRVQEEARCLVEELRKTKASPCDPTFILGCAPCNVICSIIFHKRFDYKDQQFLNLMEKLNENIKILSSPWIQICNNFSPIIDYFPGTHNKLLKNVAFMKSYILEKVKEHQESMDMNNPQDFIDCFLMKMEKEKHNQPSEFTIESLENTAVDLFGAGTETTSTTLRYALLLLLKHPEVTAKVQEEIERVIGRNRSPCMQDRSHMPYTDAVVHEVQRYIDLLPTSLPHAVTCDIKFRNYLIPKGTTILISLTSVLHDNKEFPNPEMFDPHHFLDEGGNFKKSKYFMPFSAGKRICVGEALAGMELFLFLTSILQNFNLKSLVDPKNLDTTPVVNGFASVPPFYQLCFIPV
T2 sequence (P33261 whole entry): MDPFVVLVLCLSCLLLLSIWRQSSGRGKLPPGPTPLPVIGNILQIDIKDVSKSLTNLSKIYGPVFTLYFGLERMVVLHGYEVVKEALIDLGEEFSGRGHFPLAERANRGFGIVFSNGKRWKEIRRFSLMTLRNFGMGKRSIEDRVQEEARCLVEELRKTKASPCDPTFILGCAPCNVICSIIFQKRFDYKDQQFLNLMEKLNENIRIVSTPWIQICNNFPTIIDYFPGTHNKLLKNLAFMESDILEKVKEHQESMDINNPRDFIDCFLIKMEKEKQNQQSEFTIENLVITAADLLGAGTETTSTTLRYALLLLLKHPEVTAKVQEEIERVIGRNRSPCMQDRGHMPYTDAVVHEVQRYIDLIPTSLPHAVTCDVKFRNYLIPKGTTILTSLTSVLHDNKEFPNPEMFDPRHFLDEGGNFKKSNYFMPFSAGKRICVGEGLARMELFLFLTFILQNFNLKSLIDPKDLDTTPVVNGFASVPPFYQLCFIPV

`COc1ncc(-c2cc(C)cn3cc(C(=O)N4CCCC4)nc23)cc1NS(=O)(=O)c1ccc(F)cc1` [Compound 35, 4-Fluoro-N-(2-methoxy-5–(6-methyl-2-(pyrrolidine-1-carbonyl)Imidazo[1,2-a]pyridin-8-yl)pyridin-3-yl)benzenesulfonamide]: the concentration for half-maximal inhibition (IC50) – broadly, the midpoint of a concentration-inhibition curve – in data set [1] is 26.6 ± 1.3 µM; in data set [2], 7.9 ± 0.8 µM; in [3], 9.4 ± 0.6 µM. The cell cycle effect entry in data set [4] is “S cell cycle arrest”. Further, the “Remaining (T = 60min)” value is 31.5% in data set [5] (1 μM, 60 min) and 42.7% in data set [6] (1 μM, 60 min). The microsomal CLint at 1 μM in data set [5] (SD, rat, rat liver microsomes, pH 7.4, 0.5 mg protein/mL, read-out: Metabolic stability CL int) is 43.4 µL/min/mg; in [6] (human, human liver microsomes, pH 7.4, 0.5 mg protein/mL, read-out: Metabolic stability CL int), 30.7 µL/min/mg. The half-life at 1 μM in [5] (SD, rat, rat liver microsomes, pH 7.4, 0.5 mg protein/mL, read-out: Metabolic stability T1/2) amounted to 31.9 min; in [6] (human, human liver microsomes, pH 7.4, 0.5 mg protein/mL, read-out: Metabolic stability T1/2) it was 45.1 min. The same molecule displayed a CYP1A2 % inhibition in data set [7] of 9.8%. Also, the CYP2C19 % inhibition in data set [8] came to 25.9%. In addition, in [9], the CYP2C9 % inhibition stood at 30.6%. The molecule also came in with a CYP2D6 % inhibition in [10] of 13.5%. For the same molecule, the CYP3A4 % inhibition in data set [11] is given as 42.6%.
